Structures can show the parent of a compound that is named as a salt.
Molecular target: T1, human recombinant 6His-Nterm SHP2 full-length (Thr2-Arg593) (Homo sapiens, UniProt Q06124)
T1 construct: 6His-Nterm SHP2 full-length (Thr2-Arg593, R&D system); 6His (N); purchased R&D system
T1 sequence (Q06124 2-593): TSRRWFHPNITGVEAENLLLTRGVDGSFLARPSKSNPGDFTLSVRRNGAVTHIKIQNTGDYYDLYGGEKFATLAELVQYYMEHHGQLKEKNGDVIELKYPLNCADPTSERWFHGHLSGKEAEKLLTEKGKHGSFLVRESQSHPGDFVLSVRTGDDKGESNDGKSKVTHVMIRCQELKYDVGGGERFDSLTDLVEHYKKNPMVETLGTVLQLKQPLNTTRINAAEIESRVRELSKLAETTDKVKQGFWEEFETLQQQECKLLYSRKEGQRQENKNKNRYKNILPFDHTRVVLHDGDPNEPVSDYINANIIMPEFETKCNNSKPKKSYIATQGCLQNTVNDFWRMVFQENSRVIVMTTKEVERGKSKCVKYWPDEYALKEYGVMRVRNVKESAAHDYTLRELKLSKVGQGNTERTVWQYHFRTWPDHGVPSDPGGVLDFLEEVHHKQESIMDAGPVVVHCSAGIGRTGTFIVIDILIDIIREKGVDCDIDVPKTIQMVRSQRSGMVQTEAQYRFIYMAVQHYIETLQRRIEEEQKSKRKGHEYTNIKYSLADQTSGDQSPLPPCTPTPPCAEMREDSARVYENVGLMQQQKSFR
Assay: SHP2 Phosphatase Assay (DiFMUP fluorescence)
Assay type: biochemical
Conditions: SHP2 0.2 nM pre-incubated with 100 nM bi-phosphorylated activating peptide; compound 1000-0.05 nM, 30 min pre-incubation; DiFMUP 20 µM, 45 min, room temperature; 10-concentration dose-response
Procedure: Inhibition of SHP2 phosphatase activity was evaluated using human recombinant 6His-Nterm SHP2 full-length (Thr2-Arg593, R&D system), NsCs bi-phosphorylated activating peptide (NH2-LN(pY)AQLWHA(PEG8)LTI(pY)ATIRRF-Amide.acetate, Thermofischer Scientific) and DiFMUP as surrogate phosphatase substrate (Molecular Probes). All reactions were performed at room temperature in 384-well black polystyrene non-binding plate (Corning) with the assay buffer (50 mM HEPES-NaOH pH 7.2, 100 mM NaCl, 0.5 mM EDTA, 0.001% Brij35 including 0.02% BSA and 1 mM DTT added extemporaneously). SHP2 was pre-incubated at least 10 min with the activating peptide (0.2 nM and 100 nM, respectively). 10 µL of this mixture was added to the assay plate, that already contained 15 nL of the compound (1000-0.05 nM). After 30 min pre-incubation, the enzymatic reaction was initiated by the addition of 5 µL DiFMUP in assay buffer without BSA (20 µM). The reaction was stopped by the addition of 15 µL sodium pervanadate solution (100 µM) after 45 min incubation. The fluorescence signal was measured at excitation and emission wavelengths of 350 nm and 450 nm, respectively, using a Pherastar instrument (BMG-LabTech). Percentage of inhibition […] were calculated from the fluorescence signal at 450 nm of the positive and negative control using the following formula: I% = ((signal Max−signal Sample)/(signal Max−signal Min control)) × 100 [formula]
Positive control (Max): corresponds to the maximum fluorescence signal obtained in the presence of 15 nL DMSO replacing the inhibitor in the pre-incubation step.
Negative control (Min): corresponds to the minimum signal obtained in the presence of 1 µM of RMC-4550, the structure of which is shown below: [drawing 464]
The IC50 were then calculated from a dose-response curve of 10 concentrations of tested compound using the 4-parameter logistic model: I% = A + (C)/(1 + exp(−B×log(X)−M)) [formula]
The parameters A and (A+C) are the lower and upper limits, B is the slope of the curve at the inflexion point, M parameter is the logarithm of the abscissa at the inflexion point, and X is the concentration of compound.

Row | SMILES | IC50 [nM]
1 | Cc1cnc2c(c1)[C@@H](N)C1(CCN(c3nc(C)c(-c4ccnc(C)c4Cl)n4nccc34)CC1)C2 [Compound 43, (5S)-1'-[7-(3-chloro-2-methyl-4-pyridyl)-6-methyl-pyrazolo[1,5-a]pyrazin-4-yl]-3-methyl-spiro[5,7-dihydrocyclopenta[b]pyridine-6,4'-piperidine]-5-amine] | 4
2 | Cc1cc(-c2c(C)nc(N3CCC4(CC3)Cc3ncccc3[C@H]4N)c3ccnn23)n(C)n1 [Compound 44, (5S)-1'-[7-(2,5-dimethylpyrazol-3-yl)-6-methyl-pyrazolo[1,5-a]pyrazin-4-yl]spiro[5,7-dihydrocyclopenta[b]pyridine-6,4'-piperidine]-5-amine] | 15
3 | Cc1nccc(-c2c(C)nc(N3CCC4(CC3)Cc3ncccc3[C@H]4N)c3ccnn23)c1Cl [Compound 45, (5S)-1'-[7-(3-cldoro-2-methyl-4-pyridyl)-6-methyl-pyrazolo[1,5-a]pyrazin-4-yl]spiro[5,7-dihydrocyclopenta[b]pyridine-6,4'-piperidine]-5-amine] | 8
4 | Cc1nc(N2CCC3(CC2)Cc2ncccc2[C@H]3N)c2ccnn2c1-c1cscc1C#N [Compound 46, 4-[4-[(5S)-5-aminospiro[5,7-dihydrocyclopenta[b]pyridine-6,4'-piperidine]-1'-yl]-6-methyl-pyrazolo[1,5-a]pyrazin-7-yl]thiophene-3-carbonitrile] | 73
5 | Cc1nn(C)cc1-c1c(C)nc(N2CCC3(CC2)Cc2ncccc2[C@H]3N)c2ccnn12 [Compound 47, (5S)-1'-[7-(1,3-dimethylpyrazol-4-yl)-6-methyl-pyrazolo[1,5-a]pyrazin-4-yl]spiro [5,7-dihydrocyclopenta[b]pyridine-6,4'-piperidine]-5-amine] | 154
6 | CCn1cc(-c2c(C)nc(N3CCC4(CC3)Cc3ncccc3[C@H]4N)c3ccnn23)cn1 [Compound 48, (5S)-1'-[7-(1-ethylpyrazol-4-yl)-6-methyl-pyrazolo[1,5-a]pyrazin-4-yl]spiro[5,7-dihydrocyclopenta[b]pyridine-6,4'-piperidine]-5-amine] | 17
7 | Cc1nc(N2CCC3(CC2)Cc2ncccc2[C@H]3N)c2ccnn2c1-c1ccnc(C(F)(F)F)c1 [Compound 49, (5S)-1'-[6-methyl-7-[2-(trifluoromethyl)-4-pyridyl]pyrazolo[1,5-a]pyrazin-4-yl]spiro[5,7-dihydrocyclopenta[b]pyridine-6,4'-piperidine]-5-amine] | 130
8 | Cc1nc(N2CCC3(CC2)Cc2ncccc2[C@H]3N)c2ccnn2c1-c1cc2ccccc2n1C [Compound 50, (5S)-1'-[6-methyl-7-(1-methylindol-2-yl)pyrazolo[1,5-a]pyrazin-4-yl]spiro[5,7-dihydrocyclopenta[b]pyridine-6,4'-piperidine]-5-amine] | 10
9 | Cc1nc(N2CCC3(CC2)Cc2ncccc2[C@H]3N)c2ccnn2c1-c1ccccc1F [Compound 51, (5S)-1'-[7-(2-fluorophenyl)-6-methyl-pyrazolo[1,5-a]pyrazin-4-yl]spiro[5,7-dihydrocyclopenta[b]pyridine-6,4'-piperidine]-5-amine] | 5
10 | Cc1ccccc1-c1c(C)nc(N2CCC3(CC2)Cc2ncccc2[C@H]3N)c2ccnn12 [Compound 52, (5S)-1'-[6-methyl-7-(o-tolyl)pyrazolo[1,5-a]pyrazin-4-yl]spiro[5,7-dihydrocyclopenta[b]pyridine-6,4'-piperidine]-5-amine] | 24
11 | Cc1nc(N2CCC3(CC2)Cc2ncccc2[C@H]3N)c2ccnn2c1-c1ccc(Cl)s1 [Compound 53, (5S)-1'-[7-(5-chloro-2-thienyl)-6-methyl-pyrazolo[1,5-a]pyrazin-4-yl]spiro[5,7-dihydrocyclopenta[b]pyridine-6,4'-piperidine]-5-amine] | 3
12 | Cc1nc(N2CCC3(CC2)Cc2ncccc2[C@H]3N)c2ccnn2c1-c1ccsc1Cl [Compound 54, (5S)-1'-[7-(2-chloro-3-thienyl)-6-methyl-pyrazolo[1,5-a]pyrazin-4-yl]spiro[5,7-dihydrocyclopenta[b]pyridine-6,4'-piperidine]-5-amine] | 4
13 | Cc1nc(N2CCC3(CC2)Cc2ncc(C(F)F)cc2[C@H]3N)c2ccnn2c1-c1cnn(C)c1C [Compound 55, (5S)-3-(difluoromethyl)-1'-[7-(1,5-dimethylpyrazol-4-yl)-6-methyl-pyrazolo[1,5-a]pyrazin-4-yl]spiro [5,7-dihydrocyclopenta[b]pyridine-6,4'-piperidine]-5-amine] | 30
14 | COc1ccc2c(n1)CC1(CCN(c3nc(C)c(-c4ccccc4F)n4nccc34)CC1)[C@@H]2N [Compound 56, (5S)-1'-[7-(2-fluorophenyl)-6-methyl-pyrazolo[1,5-a]pyrazin-4-yl]-2-methoxy-spiro[5,7-dihydrocyclopenta[b]pyridine-6,4'-piperidine]-5-amine] | 17
15 | [2H]c1c([2H])c([2H])c(-c2c(C)nc(N3CCC4(CC3)Cc3ncccc3[C@H]4N)c3ccnn23)c([2H])c1[2H] [Compound 57, (5S)-1'-[6-methyl-7-(2,3,4,5,6-pentadeuteriophenyl)pyrazolo [1,5-a]pyrazin-4-yl]spiro[5,7-dihydrocyclopenta[b]pyridine-6,4'-piperidine]-5-amine] | 10
16 | Cc1nc(N2CCC3(CC2)Cc2cc(CO)ncc2[C@H]3N)c2ccnn2c1-c1ccccc1F [Compound 59, [(7S)-7-amino-1'-[7-(2-fluorophenyl)-6-methyl-pyrazolo[1,5-a]pyrazin-4-yl]spiro[5,7-dihydrocyclopenta[c]pyridine-6,4'-piperidine]-3-yl]methanol] | 11
17 | Cc1cc2c(cn1)[C@@H](N)C1(CCN(c3nc(C)c(-c4ccccc4F)n4nccc34)CC1)C2 [Compound 60, (7S)-1'-[7-(2-fluorophenyl)-6-methyl-pyrazolo[1,5-a]pyrazin-4-yl]-3-methyl-spiro[5,7-dihydrocyclopenta[c]pyridine-6,4'-piperidine]-7-amine] | 7
18 | Cc1nc(N2CCC3(CC2)Cc2nc(C(F)F)ccc2[C@H]3N)c2ccnn2c1-c1cnn(C)c1C [Compound 61, (5S)-2-(difluoromethyl)-1'-[7-(1,5-dimethylpyrazol-4-yl)-6-methyl-pyrazolo[1,5-a]pyrazin-4-yl]spiro [5,7-dihydrocyclopenta[b]pyridine-6,4'-piperidine]-5-amine] | 211
19 | COc1ccc2c(c1)CC1(CCN(c3nc(C)c(-c4cnn(C)c4C)n4nccc34)CC1)[C@@H]2N [Compound 62, (1S)-1'-[7-(1,5-dimethylpyrazol-4-yl)-6-methyl-pyrazolo[1,5-a]pyrazin-4-yl]-5-methoxy-spiro[indane-2,4'-piperidine]-1-amine] | 17
20 | Cc1nc(N2CCC3(CC2)Cc2nccnc2[C@H]3N)c2ccnn2c1-c1ccccc1F [Compound 63, (5S)-1'-[7-(2-fluorophenyl)-6-methyl-pyrazolo[1,5-a]pyrazin-4-yl]spiro[5,7-dihydrocyclopenta[b]pyrazine-6,4'-piperidine]-5-amine] | 112
21 | Cc1nc(N2CCC3(CC2)Cc2c(F)cccc2[C@H]3N)c2ccnn2c1-c1ccccc1F [Compound 64, (1S)-4-Fluoro-1'-[7-(2-fluorophenyl)-6-methyl-pyrazolo[1,5-a]pyrazin-4-yl]spiro[indane-2,4'-piperidine]-1-amine hydrochloride] | 46
22 | Cc1nc(N2CCC3(CC2)Cc2scnc2[C@H]3N)c2ccnn2c1-c1cccc(F)c1F [Compound 65, (4S)-1'-[7-(2,3-difluorophenyl)-6-methyl-pyrazolo[1,5-a]pyrazin-4-yl]spiro[4,6-dihydrocyclopenta[d]thiazole-5,4'-piperidine]-4-amine hydrochloride] | 22
